Key:
[1] = system: extracellular signal-regulated kinase (ERK); details: preclinical studies; cited from earlier work
[2] = Phase 1 study of sotorasib with rifampin; assay type: in vivo, human
[3] = Study 20190135 Subprotocol H: sotorasib pharmacokinetics in combination with panitumumab
CRC = test: Study 20170543 Phase 2 CRC cohort, sotorasib monotherapy; assay type: in vivo, human
Excerpt: A data snapshot was taken on Jun. 9, 2022.

[4] = Phase 1 study of sotorasib with omeprazole under fasted conditions; assay type: in vivo, human
[5] = Phase 1 study of sotorasib with famotidine or omeprazole under fed conditions; assay type: in vivo, human
Description: Safety and tolerability monitoring was performed throughout the study.

[6] = Study 20170543 (CodeBreaK 100): sotorasib monotherapy pharmacokinetics; details: for AUC(0-t): AUC0-24h
KRAS G12C mutated CRC = test: Study 20190135 Subprotocol H, sotorasib + panitumumab: safety and tolerability (DLTs, TRAEs)
Excerpt: Accordingly, the primary endpoint will include an assessment of dose limiting toxicities, treatment-emergent and treatment-related adverse events.
The grading of AEs will be based on the guidelines provided in the CTCAE version 5.0. […] A Hy's Law case is defined as: AST or ALT values of ≥3×ULN AND with serum total bilirubin level (TBL) of >2×ULN without signs of cholestasis and with no other clear alternative reason to explain the observed liver related laboratory abnormalities.

[7] = Phase 1 study of digoxin with sotorasib; assay type: in vivo, human
Excerpt: PK parameters were estimated using non-compartmental methods. Safety and tolerability were monitored throughout the study.

[8] = Phase 1 study of midazolam with sotorasib; details: 2 mg midazolam with 960 mg sotorasib after 14 days of daily sotorasib vs midazolam alone; 5 subjects
[9] = 960 mg sotorasib with single dose of 600 mg rifampin
[10] = Jun. 24, 2022 data cut-off, combination therapy with panitumumab (n=35)
[11] = with omeprazole vs sotorasib alone, fasted state
[12] = famotidine 10 hours prior to and 2 hours after a single dose of sotorasib
[13] = repeat doses of omeprazole with a single dose of sotorasib
[14] = human, plasma, oral, day 1, monotherapy (CodeBreaK 100), comparison in Aug. 6, 2021 data cut
[15] = Aug. 6, 2021 data cut, 31 patients on the combination
[16] = Jun. 24, 2022 data cut-off, 40 patients on the combination
[17] = 0.5 mg digoxin coadministered with 960 mg sotorasib
[18] = with a single dose of sotorasib vs digoxin alone

## C=CC(=O)N1CCN(c2nc(=O)n(-c3c(C)ccnc3C(C)C)c3nc(-c4c(O)cccc4F)c(F)cc23)[C@@H](C)C1 (atropisomer, axis not shown; (M)) [sotorasib, 6-fluoro-7-(2-fluoro-6-hydroxyphenyl)-(1M)-1-[4-methyl-2-(propan-2-yl)pyridin-3-yl]-4-[(2S)-2-methyl-4-(prop-2-enoyl)piperazin-1-yl]pyrido[2,3-d]pyrimidin-2(1H)-one]
[1]
  phosphorylation of extracellular signal-regulated kinase (ERK): inhibited nearly all detectable phosphorylation
[2]; 960 mg sotorasib alone
  Geometric mean sotorasib AUCinf: 25600 ng·h/mL
  Geometric mean sotorasib Cmax: 6350 ng/mL
[2]; 960 mg sotorasib with multiple doses of 600 mg rifampin
  Geometric mean sotorasib Cmax: 4110 ng/mL
[2]; [9]
  Geometric mean sotorasib AUCinf: 19600 ng·h/mL
  Geometric mean sotorasib Cmax: 5340 ng/mL
[2]; coadministered with 600 mg rifampin or alone, healthy subjects
  safety and tolerability: safe and well tolerated
[2]; inferred from multiple doses of rifampin
  CYP3A4 substrate status: is a CYP3A4 substrate
[2]; inferred from single dose of rifampin
  OATP1B1 substrate status: not a substrate of OATP1B1
[2]; multiple doses of rifampin
  decrease of sotorasib AUCinf: 51%
  decrease of sotorasib Cmax: 35%
[2]; single dose of rifampin
  effect of single dose of rifampin on sotorasib PK: did not have a clinically meaningful effect
[3]; Aug. 6, 2021 data cut, day 1, combination therapy with panitumumab
  AUC0-24h: 77.2 µg·h/mL
[3]; [10]
  AUC0-24h, mean (CV %): 65.8 (56%) h*μg/mL
  Cmax, mean (CV %): 9.64 (55%) μg/mL
CRC
  response rate: 10%
[4]; 960 mg sotorasib with 40 mg omeprazole vs alone, fasted
  mean terminal half-life (t1/2) with omeprazole compared to sotorasib alone: similar
[4]; coadministered with 40 mg omeprazole or alone, healthy subjects
  safety and tolerability: safe and well tolerated
[4]; [11]
  decrease of sotorasib AUCinf: 42%
  decrease of sotorasib Cmax: 57%
[5]; 960 mg sotorasib with 40 mg famotidine or multiple daily 40 mg omeprazole, healthy subjects
  safety and tolerability: safe and well tolerated
[5]; [12]
  decrease of sotorasib AUC: 38%
  decrease of sotorasib Cmax: 35%
[5]; [13]
  decrease of sotorasib AUC: 57%
  decrease of sotorasib Cmax: 65%
[6]; 180 mg, Day 8
  tmax, median (range): 0.75 (0.50-1.0) hr
[6]; 960 mg, Day 1
  tmax, median (range): 2.0 (0.25-6.0) hr
[6]; 180 to 960 mg PO QD, day 1 and day 8
  dose proportionality of exposure: less than dose-proportional
[6]; after PO administration, 180 to 960 mg PO QD
  Tmax: 1 to 2 h
[6]; human, plasma, oral
  Tmax: 1.9 h
[6]; [14]
  AUC(0-t): 103000 ng·h/mL
  Cmax: 9710 ng/mL
[6]; human, plasma, oral, mean (CV %), monotherapy (n=32, CodeBreaK 100), comparison in Jun. 24, 2022 data cut-off
  AUC(0-t): 65300 ng·h/mL
[6]; human, plasma, oral, day 8, monotherapy (CodeBreaK 100), comparison in Aug. 6, 2021 data cut
  Cmax: 6500 ng/mL
[6]; human, plasma, oral, tmax, day 8, monotherapy (CodeBreaK 100), comparison in Aug. 6, 2021 data cut
  Tmax: 2 h
[6]; human, plasma, oral, tmax, median (range), monotherapy (n=32, CodeBreaK 100), comparison in Jun. 24, 2022 data cut-off
  Tmax: 2 h
[6]; multiple PO QD dosing for 8 days
  accumulation with multiple dosing: no accumulation
KRAS G12C mutated CRC; Apr. 23, 2021 data cut, 8 patients on sotorasib 960 mg QD + panitumumab 6 mg/kg IV Q2W
  TRAEs of any grade related to the named drug: 4 patients
KRAS G12C mutated CRC; Apr. 23, 2021 data cut, 8 patients on the combination
  TRAEs leading to dose modification of the named drug: 1 patients
KRAS G12C mutated CRC; [15]
  TRAEs of any grade related to the named drug, % of patients: 45.2%
  TRAEs of any grade related to the named drug, number of patients: 14 patients
  TRAEs resulting in dose modification of the named drug, % of patients: 9.7%
  TRAEs resulting in dose modification of the named drug, number of patients: 3 patients
KRAS G12C mutated CRC; [16]
  TRAEs of any grade related to the named drug, % of patients: 65%
  TRAEs of any grade related to the named drug, number of patients: 26 patients
  TRAEs resulting in dose modification of the named drug, % of patients: 15%
  TRAEs resulting in dose modification of the named drug, number of patients: 6 patients

## C[C@H]1O[C@@H](O[C@H]2[C@@H](O)C[C@H](O[C@H]3[C@@H](O)C[C@H](O[C@H]4CC[C@@]5(C)[C@H](CC[C@@H]6[C@@H]5C[C@@H](O)[C@]5(C)[C@@H](C7=CC(=O)OC7)CC[C@]65O)C4)O[C@@H]3C)O[C@@H]2C)C[C@H](O)[C@@H]1O [digoxin]
[7]; 0.5 mg digoxin alone
  Geometric mean digoxin AUCinf: 33.2 ng·h/mL
  Geometric mean digoxin Cmax: 1.90 ng/mL
[7]; [17]
  Geometric mean digoxin AUCinf: 40.3 ng·h/mL
  Geometric mean digoxin Cmax: 3.64 ng/mL
[7]; 0.5 mg digoxin with 960 mg sotorasib vs alone
  Digoxin median tmax and mean terminal half-life (t1/2) with sotorasib compared to digoxin alone: similar
[7]; single doses of 0.5 mg digoxin alone or with 960 mg sotorasib
  safety and tolerability: safe and well tolerated
[7]; [18]
  increase of digoxin AUCinf: approximately 21%
  increase of digoxin Cmax: ~91%

## Cc1ncc2n1-c1ccc(Cl)cc1C(c1ccccc1F)=NC2 [midazolam]
[8]
  decrease of midazolam AUV: 53%
  decrease of midazolam Cmax: 48%

Reference: patent US20250127782A1, “METHODS OF TREATING CANCER” (AMGEN INC., priority 2021, published 2025)
